The values that follow come from patent US11040954B1, “CXCR3 receptor agonists” (RECEPTOS LLC, priority 2016, dated 2021).

Usually EC50 stands for the midpoint of the concentration-response curve.

One assay has as its target T1, CXCR3 (Homo sapiens, UniProt P49682).
T1 construct: host or cells: CHO-K1 (cAMP Hunter CHOK1 CXCR3 Gi cell line)
T1 sequence (P49682 1-368): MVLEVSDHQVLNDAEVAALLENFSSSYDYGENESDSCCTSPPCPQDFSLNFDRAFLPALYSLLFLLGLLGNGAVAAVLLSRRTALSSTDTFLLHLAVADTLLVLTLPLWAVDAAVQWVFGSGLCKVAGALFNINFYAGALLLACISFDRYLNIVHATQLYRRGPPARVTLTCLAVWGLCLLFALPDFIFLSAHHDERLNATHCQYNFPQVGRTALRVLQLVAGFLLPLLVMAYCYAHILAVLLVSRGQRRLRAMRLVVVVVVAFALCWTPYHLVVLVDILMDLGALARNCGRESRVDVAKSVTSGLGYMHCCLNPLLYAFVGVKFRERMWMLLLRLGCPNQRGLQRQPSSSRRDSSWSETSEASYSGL
Put plainly: CXCR3 cAMP agonist assay (cAMP Hunter CHOK1 CXCR3 Gi cell line, forskolin-stimulated, HitHunter cAMP detection).
Details: not given
Type of assay: cell-based. Summed up:
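Agonist activity was measured as suppression of forskolin (20 μM)-induced cAMP, read by luminescent enzyme-fragment complementation with a cAMP standard curve and CXCL11 defining full efficacy. Assay used 50,000 CXCR3 Gi CHOK1 cells/well in pH 7.4 HEPES-buffered HBSS with 0.1% BSA, compound 0-10 μM over 12 points, 30 min incubation.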
Regarding `Cc1cc(NC(=O)[C@H](CCN)NC(=O)[C@@H]2Cc3ccccc3CN2C(=O)CCC(=O)N2CCC(=O)CC2)ccc1Cl` [Compound 12-86], the EC50 lay in the range of 250 to 500 nM.

The assay is the same for the next values; noted with them: cAMP Hunter CHOK1 CXCR3 Gi cells, 20 μM forskolin, 30 minutes; read-out: Activity (CXCR3 cAMP agonist assay compound EC50).
As for `Cc1cc(NC(=O)[C@H](CCN)NC(=O)[C@@H]2Cc3ccccc3CN2C(=O)CCC(=O)N2CCCC3(CCC3)C2)cc(C)c1Cl` [Compound 10-11], the EC50 was less than 50 nM.
The same measure, in the same setting: next, `CN(C)CCN(C)C(=O)CCC(=O)N1Cc2ccccc2C[C@H]1C(=O)N[C@@H](CCN)C(=O)Nc1ccc(Cl)c(Cl)c1F` [Compound 15-28]: more than 500 nM.
On the same count and under the same terms, in the case of `CC[C@@H]1CCCCN1C(=O)CCC(=O)N1Cc2ccccc2C[C@H]1C(=O)N[C@@H](CCN)C(=O)Nc1ccc(Cl)c(C)c1` [Compound 12-112] it was less than 50 nM; in that of `Cc1cc(NC(=O)[C@H](CCN)NC(=O)[C@@H]2Cc3ccccc3CN2C(=O)CCC(=O)N2CCCC2C#N)ccc1Cl` (stereo partly drawn) [Compound 12-77], less than 50 nM.
The same measure, in the same setting: next, `Cc1cc(NC(=O)[C@H](CCN)NC(=O)[C@@H]2Cc3ccccc3CN2C(=O)CCC(=O)N2C(C)CCCC2C)ccc1Cl` (stereo partly drawn) [Compound 12-41]: less than 50 nM; `Cc1cc(NC(=O)[C@H](CCN)NC(=O)[C@@H]2Cc3ccccc3CN2C(=O)CCC(=O)N2CCCC[C@H]2C)ccc1Cl` [Compound 12-25]: less than 50 nM; `COc1c(NC(=O)[C@H](CCN)NC(=O)[C@@H]2Cc3ccccc3CN2C(=O)CCC(=O)c2ccccc2)ccc2c1CCC2` [Compound 2-58]: 50 to 250 nM.
With `Cc1cc(NC(=O)[C@H](CCN)NC(=O)[C@@H]2Cc3ccccc3CN2C(=O)CCC(=O)N2CC3(CCCCC3)C2)ccc1Cl` [Compound 12-7], the concentration for a half-maximal effect (EC50) is less than 50 nM.
Same read-out and setting: next, `Cc1cc(NC(=O)[C@H](CCC2CCN(C(=O)OC(C)(C)C)CC2)NC(=O)[C@@H]2Cc3ccccc3CN2C(=O)CCC(=O)c2ccccc2)ccc1Cl` [Compound 17-2]: 250 to 500 nM; `CC[C@H]1CCCCN1C(=O)CCC(=O)N1Cc2ccccc2C[C@H]1C(=O)N[C@@H](CCN)C(=O)Nc1ccc(Cl)c(C)c1` [Compound 12-97]: less than 50 nM.
The same measure, in the same setting: next, `Cc1cc(NC(=O)[C@H](CCN)NC(=O)[C@@H]2Cc3ccccc3CN2C(=O)CCC(=O)N2CCCC(F)(F)C2)ccc1Cl` [Compound 12-79]: less than 50 nM; `Cc1cc(NC(=O)[C@H](CCN)NC(=O)[C@@H]2Cc3ccccc3CN2C(=O)CCC(=O)N2CCN(C)[C@H](C)C2)ccc1Cl` [Compound 12-35]: less than 50 nM; `Cc1cc(NC(=O)[C@@H](CC23CC(N)(C2)C3)NC(=O)[C@@H]2Cc3ccccc3CN2C(=O)CCC(=O)c2ccccc2)ccc1Cl` [Compound 22-2, (S)—N—((R)-3-(3-aminobicyclo[1.1.1]pentan-1-yl)-1-((4-chloro-3-methylphenyl)amino)-1-oxopropan-2-yl)-2-(4-oxo-4-phenylbutanoyl)-1,2,3,4-tetrahydroisoquinoline-3-carboxamide]: 250 to 500 nM.
The same measure, in the same setting: next, `Cc1c(F)cc(NC(=O)[C@H](CCN)NC(=O)[C@@H]2Cc3ccccc3CN2C(=O)CCC(=O)c2ccccc2)cc1Cl` [Compound 4-19]: less than 50 nM; `Cc1cc(NC(=O)[C@H](CCN)NC(=O)[C@@H]2Cc3ccccc3CN2C(=O)CCC(=O)N2CCOC[C@@H]2C)ccc1Cl` [Compound 12-27]: 50 to 250 nM; `NCC[C@H](NC(=O)[C@@H]1Cc2ccccc2CN1C(=O)CCC(=O)N1CCCC[C@H]1CO)C(=O)Nc1ccc(Cl)c(Cl)c1F` [Compound 15-19]: 50 to 250 nM.
With `CC(C)(C)C1CCN(C(=O)CCC(=O)N2Cc3ccccc3C[C@H]2C(=O)N[C@@H](CCN)C(=O)Nc2ccc(Cl)c(Cl)c2F)C1` (stereo partly drawn) [Compound 15-34], the EC50 is less than 50 nM.
Turning to `O=C(CCC(=O)N1Cc2ccccc2C[C@H]1C(=O)N[C@@H](CCN1CCC(F)(F)C1)C(=O)Nc1ccc2c(c1)CCC2)c1ccccc1` [Compound 23-7], the EC50 lay in the range of 250 to 500 nM.
Same read-out and setting: next, `Cc1cc(NC(=O)[C@H](CCN)NC(=O)[C@@H]2Cc3ccccc3CN2C(=O)CCC(=O)N2CCC(C(C)C)CC2)ccc1Cl` [Compound 12-60]: less than 50 nM.
The same measure, in the same setting: next, `Cc1cc(NC(=O)[C@H](CCN)NC(=O)[C@@H]2Cc3ccccc3CN2C(=O)CCC(=O)N2CCC(C)(C)CC2)ncc1Cl` [Compound 12-159]: less than 50 nM; `NCC[C@H](NC(=O)[C@@H]1Cc2ccccc2CN1C(=O)CCC(=O)c1ccccc1)C(=O)Nc1cc(Cl)c(Cl)cc1O` (racemic) [Compound 4-13]: 50 to 250 nM; `CC(C)c1ccc(NC(=O)[C@H](CCCCN)NC(=O)[C@@H]2Cc3ccccc3CN2C(=O)CCC(=O)c2ccccc2)cc1` [Compound 1-7]: more than 500 nM.
Consider `Cc1cc(NC(=O)[C@H](CCN)NC(=O)[C@@H]2Cc3ccccc3CN2C(=O)CCC(=O)N2CC3CCC2CN3C)ccc1Cl` (stereo partly drawn) [Compound 12-146], for which the EC50 was more than 500 nM.
Regarding `Cc1cc(NC(=O)[C@H](CCN(C(C)C)C(C)C)NC(=O)[C@@H]2Cc3ccccc3CN2C(=O)CCC(=O)c2ccccc2)ccc1Cl` [Compound 3-7], the EC50 was less than 50 nM.
Same read-out and setting: next, `NCC[C@H](NC(=O)[C@@H]1Cc2ccccc2CN1C(=O)CCC(=O)c1ccccc1)C(=O)Nc1ccc(Cl)cc1Cl` [Compound 2-52]: 50 to 250 nM; `Cc1cc(NC(=O)[C@H](CCN)NC(=O)[C@@H]2Cc3ccccc3CN2C(=O)CCC(=O)N2CC(C(C)(C)O)C2)ccc1Cl` [Compound 12-22]: less than 50 nM.
The same measure, in the same setting: in the case of `NCC[C@H](NC(=O)[C@@H]1Cc2ccccc2CN1C(=O)CCC(=O)N1CCCCCC1)C(=O)Nc1ccc(Cl)c(Cl)c1F` [Compound 15-15] it was less than 50 nM; in that of `Cc1cc(NC(=O)[C@H](CCNC(=O)CN)NC(=O)[C@@H]2Cc3ccccc3CN2C(=O)CCC(=O)N2CCCCC2)ccc1Cl` [Compound 31-1, (S)—N—((S)-4-(2-aminoacetamido)-1-((4-chloro-3-methylphenyl)amino)-1-oxobutan-2-yl)-2-(4-oxo-4-(piperidin-1-yl)butanoyl)-1,2,3,4-tetrahydroisoquinoline-3-carboxamide], less than 50 nM; in that of `CN(C(=O)CCC(=O)N1Cc2ccccc2C[C@H]1C(=O)N[C@@H](CCN)C(=O)Nc1ccc(Cl)c(Cl)c1F)C1CCCC1` [Compound 15-36], less than 50 nM.
Still for that read-out and setting: in the case of `Cc1cc(NC(=O)[C@H](CCN)NC(=O)[C@@H]2Cc3ccccc3CN2C(=O)CCC(=O)N2CC[C@H](C)C2)ccc1Cl` [Compound 12-123] it was less than 50 nM; in that of `NCC[C@H](NC(=O)[C@@H]1Cc2ccccc2CN1C(=O)CCC(=O)c1ccccc1)C(=O)Nc1cnc2ccccc2c1` [Compound 2-44], less than 50 nM.
Consider `Cc1cc(NC(=O)[C@H](CCN)NC(=O)[C@@H]2Cc3ccccc3CN2C(=O)CCC(=O)N2CCC(F)(F)CC2)ccc1Cl` [Compound 12-4], for which the EC50 was less than 50 nM.
Turning to `Cc1cc(NC(=O)[C@H](CCN)NC(=O)[C@@H]2Cc3ccccc3CN2C(=O)CCC(=O)N2CCC(C)(C)CC2)ccc1Cl` [Compound 12-28], the EC50 was less than 50 nM.
Same read-out and setting: next, `Cc1cc(NC(=O)[C@H](CCN)NC(=O)[C@@H]2Cc3ccccc3CN2C(=O)CCC(=O)N2CC(C)C(C)C2)ccc1Cl` (stereo partly drawn) [Compound 12-68]: less than 50 nM; `Cc1cc(NC(=O)[C@H](CCN2CCC(O)CC2)NC(=O)[C@@H]2Cc3ccccc3CN2C(=O)CCC(=O)c2ccccc2)ccc1Cl` [Compound 17-1, (S)—N—((S)-1-((4-chloro-3-methylphenyl)amino)-4-(4-hydroxypiperidin-1-yl)-1-oxobutan-2-yl)-2-(4-oxo-4-phenylbutanoyl)-1,2,3,4-tetrahydroisoquinoline-3-carboxamide]: less than 50 nM.
In the case of `C[C@H]1CN(C(=O)CCC(=O)N2Cc3ccccc3C[C@H]2C(=O)N[C@@H](CCN)C(=O)Nc2ccc(Cl)c(Cl)c2F)CCN1C` [Compound 15-63], the EC50 was less than 50 nM.
With `CCc1c(NC(=O)[C@H](CCN)NC(=O)[C@@H]2Cc3ccccc3CN2C(=O)CCC(=O)c2ccccc2)ccc(Cl)c1C` [Compound 2-54], the EC50 was more than 500 nM.
Regarding `Cc1cccc(NC(=O)[C@H](CCN2CCC(O)CC2)NC(=O)[C@@H]2Cc3ccccc3CN2C(=O)CCC(=O)c2ccccc2)c1Cl` (racemic) [Compound 25-3], the EC50 fell in the range of 250 to 500 nM.
For the compound `Cc1cc(NC(=O)[C@H](CCN)NC(=O)[C@@H]2Cc3ccccc3CN2C(=O)CCC(=O)N2CCc3ccccc3C2)ccc1Cl` [Compound 12-76], the EC50 was less than 50 nM.
`Cc1cc(NC(=O)[C@H](CCN)NC(=O)[C@@H]2Cc3ccccc3CN2C(=O)CCC(=O)N2CCCC3(CCC3)C2)ncc1Cl` [Compound 12-158]: the EC50 is less than 50 nM.
With `Cc1cc(NC(=O)[C@H](CCNCC(C)C)NC(=O)[C@@H]2Cc3ccccc3CN2C(=O)CCC(=O)c2ccccc2)ccc1Cl` [Compound 8-1, (S)—N—((S)-1-((4-chloro-3-methylphenyl)amino)-4-(isobutylamino)-1-oxobutan-2-yl)-2-(4-oxo-4-phenylbutanoyl)-1,2,3,4-tetrahydroisoquinoline-3-carboxamide], the EC50 is less than 50 nM.
The same measure, in the same setting: in the case of `CCN(C(=O)CCC(=O)N1Cc2ccccc2C[C@H]1C(=O)N[C@@H](CCN)C(=O)Nc1ccc(Cl)c(Cl)c1F)C(C)(C)C` [Compound 15-35] it was less than 50 nM.
On the same count and under the same terms, in the case of `Cc1ccccc1NC(=O)[C@H](CCCCN)NC(=O)[C@@H]1Cc2ccccc2CN1C(=O)CCC(=O)c1ccccc1` [Compound 1-12] it was 250 to 500 nM; in that of `Cc1ccc(C(=O)CCC(=O)N2Cc3ccccc3C[C@H]2C(=O)N[C@@H](CCCCN)C(=O)Nc2ccc(Cl)c(C)c2)cc1F` [Compound 7-5], more than 500 nM.
